Results taken from ChEMBL document CHEMBL4483862, “Open-source discovery of chemical leads for next-generation chemoprotective antimalarials” (2018).
pIC50: −log10 of the molar value.

Test system: Plasmodium berghei
Assay: Luciferase/luciferin-expressing antifolate-resistant parasites were used to infect a culture of HepG2 cells that were pre-incubated with compounds. Infected hepatocytes emit light due to the luciferase reaction. Assay results are presented as the percent inhibition of light emission compared to control. […]
Assay type: functional
Conditions: sporozoite; for IC90: read-out: LUCIFERASE INFECTION ASSAY - IC90
[1] = read-out: LUCIFERASE INFECTION ASSAY - IC50

Compound	IC90 [µM]	pIC50 [1]	also measured
Cc1ccc(NC(=O)COc2ccc3c(c2C)OC(C)(C)CC3)cc1	> 9.72		pIC50 (PBLUC_HILL_SLOPE 1.51, PBLUC_R_SQUARED 0.601, read-out: LUCIFERASE INFECTION ASSAY - IC50): 5.42
CCCCCCCCSC(=S)c1c(C)[nH]n(-c2ccccc2)c1=O	> 9.1		pIC50 (PBLUC_HILL_SLOPE 1.5, PBLUC_R_SQUARED 0.801, read-out: LUCIFERASE INFECTION ASSAY - IC50): < 5.04
O=C(NC(=S)NN(C(=S)NC(=O)c1ccccc1Br)c1nc2ccccc2[nH]1)c1ccccc1Br	> 10	< 5.00	
CCOC(C(=O)Nc1ccccc1Cc1ccccc1)(c1ccccc1)c1ccccc1	> 10	< 5.00	
CCOC(=O)c1[nH]c2cc(OC)c(OC)cc2c1NC(=O)c1ccccc1OC	> 8.28		pIC50 (PBLUC_HILL_SLOPE 12.7, PBLUC_R_SQUARED 0.193, read-out: LUCIFERASE INFECTION ASSAY - IC50): 5.09
COc1ccc(NCc2csc(-c3ccccc3)n2)cc1Cl	> 10	< 5.00	
FC(F)(F)c1cc(/C=N/Nc2c(Cl)cc(C(F)(F)F)cc2Cl)cc(C(F)(F)F)c1	6.93		pIC50 (HEPG2TOX_HILL_SLOPE 9.76, HEPG2TOX_R_SQUARED 0.862, PBLUC_HILL_SLOPE 9.4, PBLUC_R_SQUARED 0.388, read-out: LUCIFERASE INFECTION ASSAY - IC50): 5.26
Cc1ccccc1OCCCn1c(CCCNC(=O)c2ccco2)nc2ccccc21	> 10	< 5.00	
CC(=O)c1c[nH]c(C(=O)OCC(=O)NCCc2ccc(C(C)C)cc2)c1	> 2	< 5.70	
COc1ccccc1N(CC(=O)NCC12CC3CC(CC(C3)C1)C2)S(=O)(=O)c1ccccc1	> 10		pIC50 (HEPG2TOX_HILL_SLOPE 6.27, HEPG2TOX_R_SQUARED 0.869, read-out: LUCIFERASE INFECTION ASSAY - IC50): < 5.00
O=c1cc(-c2ccccc2)[nH]c2cc(-c3cccs3)nn12	> 11.2	5.06	
CCOCCCNC(=O)/C(C#N)=C/c1ccc([N+](=O)[O-])o1	> 10		pIC50 (PBLUC_HILL_SLOPE 1.42, PBLUC_R_SQUARED 0.135, read-out: LUCIFERASE INFECTION ASSAY - IC50): < 5.00
COc1ccc(C)cc1CCNC(=O)c1cc(C2CC2)nn1-c1ccccc1	> 10	< 5.00	
Oc1c(Cl)cc(Cl)cc1/C=C/c1ccc2cccc(O)c2n1	7.78		pIC50 (HEPG2TOX_HILL_SLOPE 10.3, HEPG2TOX_R_SQUARED 0.191, PBLUC_HILL_SLOPE 3.13, PBLUC_R_SQUARED 0.48, read-out: LUCIFERASE INFECTION ASSAY - IC50): 5.41
Cc1ccc(NS(=O)(=O)c2ccc(C(=O)Nc3ncccc3O)cc2)cc1C	1.88		pIC50 (FFLUC_HILL_SLOPE 12.3, FFLUC_R_SQUARED 0.189, HEPG2TOX_HILL_SLOPE 11.2, HEPG2TOX_R_SQUARED 0.187, PBLUC_HILL_SLOPE 1.78, PBLUC_R_SQUARED 0.764, read-out: LUCIFERASE INFECTION ASSAY - IC50): 6.26
C=CCn1c(COc2ccc(CC)cc2)nnc1SCC(=O)/C(C#N)=C(\C)N	> 10		pIC50 (HEPG2TOX_HILL_SLOPE 17.4, HEPG2TOX_R_SQUARED 0.832, PBLUC_HILL_SLOPE 1.76, PBLUC_R_SQUARED 0.574, read-out: LUCIFERASE INFECTION ASSAY - IC50): 5.18
COc1cc(/C=C(/C(=O)Nc2ccc(Cl)cc2)c2nc3ccccc3s2)ccc1OC(F)F	3.33		pIC50 (FFLUC_HILL_SLOPE 4.93, FFLUC_R_SQUARED 0.384, HEPG2TOX_HILL_SLOPE 14.8, HEPG2TOX_R_SQUARED 0.909, PBLUC_HILL_SLOPE 5.39, PBLUC_R_SQUARED 0.576, read-out: LUCIFERASE INFECTION ASSAY - IC50): 5.66
CS(=O)(=O)Nc1cccc(-c2cn3c(-c4cccs4)cnc3cn2)c1	> 8.91		pIC50 (HEPG2TOX_HILL_SLOPE 4.93, HEPG2TOX_R_SQUARED 0.12, read-out: LUCIFERASE INFECTION ASSAY - IC50): < 5.05
O=C1C=CC(=O)N1Cc1ccccc1	> 17.6		pIC50 (HEPG2TOX_HILL_SLOPE 16.7, HEPG2TOX_R_SQUARED 0.468, read-out: LUCIFERASE INFECTION ASSAY - IC50): < 4.75
CCCn1c(N)c(C(=O)CSc2nc3sc(C)c(C)c3c(=O)n2-c2ccccc2)c(=O)[nH]c1=O	> 10	< 5.00	
Cc1noc(C)c1S(=O)(=O)N(Cc1ccc(C(=O)NC2CC2)cc1)C1CC1	3.5		pIC50 (PBLUC_HILL_SLOPE 0.781, PBLUC_R_SQUARED 0.696, read-out: LUCIFERASE INFECTION ASSAY - IC50): 6.68
CC(=O)Oc1cc2sc(=O)oc2c2ccccc12	> 12.7	< 4.90	
CC1(C)CS/C(=N\Cc2ccccc2)N1C(=O)C(c1ccccc1)c1ccccc1	> 10		pIC50 (PBLUC_HILL_SLOPE 1.51, PBLUC_R_SQUARED 0.0539, read-out: LUCIFERASE INFECTION ASSAY - IC50): < 5.00

Compound	IC90 [µM]	pIC50 [1]	also measured
CCOC(=O)Cn1c(=O)c2c3c(sc2n(Cc2ccccc2)c1=O)CCCC3	> 8.28		pIC50 (FFLUC_HILL_SLOPE 1.15, FFLUC_R_SQUARED 0.544, PBLUC_HILL_SLOPE 1.19, PBLUC_R_SQUARED 0.498, read-out: LUCIFERASE INFECTION ASSAY - IC50): 5.41
COc1ccc(-c2cc(-c3ccc(O)cc3)cnc2N)cn1	10.6		pIC50 (PBLUC_HILL_SLOPE 26.5, PBLUC_R_SQUARED 0.457, read-out: LUCIFERASE INFECTION ASSAY - IC50): 5.01
FC(F)(F)c1nc(NCCNc2ccccn2)c2ccccc2n1	5.48		pIC50 (HEPG2TOX_HILL_SLOPE 0.531, HEPG2TOX_R_SQUARED 0.801, PBLUC_HILL_SLOPE 0.677, PBLUC_R_SQUARED 0.347, read-out: LUCIFERASE INFECTION ASSAY - IC50): 6.67
CC(C)Cc1ccc(C2=Nn3c(nnc3-c3cccs3)SC2C)cc1 (stereo not given)	> 7.34	< 5.13	
c1cc(-c2cn3c(-c4ccc5c(c4)OCO5)cnc3cn2)cs1	> 10.3		pIC50 (PBLUC_HILL_SLOPE 1.82, PBLUC_R_SQUARED 0.105, read-out: LUCIFERASE INFECTION ASSAY - IC50): < 4.99
CCOC(=O)c1c(-c2ccc(C)cc2C)csc1NC(=O)COC(=O)c1cc(OC)c(OC)cc1[N+](=O)[O-]	9.51		pIC50 (FFLUC_HILL_SLOPE 2.01, FFLUC_R_SQUARED 0.464, HEPG2TOX_HILL_SLOPE 2.45, HEPG2TOX_R_SQUARED 0.944, PBLUC_HILL_SLOPE 17.4, PBLUC_R_SQUARED 0.281, read-out: LUCIFERASE INFECTION ASSAY - IC50): 5.08
COc1ccc2c(-c3ccccc3)cc(SCc3nnc(C)o3)nc2c1	> 10		pIC50 (PBLUC_HILL_SLOPE 2.18, PBLUC_R_SQUARED 0.122, read-out: LUCIFERASE INFECTION ASSAY - IC50): 5.22
O=c1[nH]n(-c2ccc(Cl)c(Cl)c2)cc1-c1cccc(Cl)c1	5.52		pIC50 (HEPG2TOX_HILL_SLOPE 2.22, HEPG2TOX_R_SQUARED 0.951, PBLUC_HILL_SLOPE 6.3, PBLUC_R_SQUARED 0.659, read-out: LUCIFERASE INFECTION ASSAY - IC50): 5.41
O=c1c2sccc2ncn1Cc1cc(-c2cccs2)on1	> 10	< 5.00	
O=C(O)COc1ccccc1/C=C1\NC(=S)NC1=O	> 10	< 5.00	
Cc1ccc(S(=O)(=O)c2ccc(-c3ccccc3)cc2)cc1	> 10.7	< 4.97	
C=C(C)C(=O)Nc1ccc([N+](=O)[O-])cc1Cl	> 13.7	< 4.86	
COc1ccccc1C(=O)OC(c1ccc(NC(=O)c2ccc(OC(F)F)cc2)cc1)(C(F)(F)F)C(F)(F)F	4.33	5.45	
Cc1nc2ccccn2c1-c1nc(CCC2CCCCC2)c(C(=O)c2c(C)[nH]c3ccccc23)s1	> 10		pIC50 (PBLUC_HILL_SLOPE 8.8, PBLUC_R_SQUARED 0.142, read-out: LUCIFERASE INFECTION ASSAY - IC50): 5.06
FC(F)(F)c1nnc2ccc(Oc3ccc(Cl)c4ccccc34)nn12	> 10	< 5.00	
CCn1c(=O)c(=O)[nH]c2cc(C(=O)Nc3cccc(C#Cc4cccs4)c3)ccc21	> 10	< 5.00	
CCOC(=O)c1oc2ccc(Br)cc2c1CSc1nnc(-c2cccs2)n1Cc1ccccc1	> 10		pIC50 (HEPG2TOX_HILL_SLOPE 1.32, HEPG2TOX_R_SQUARED 0.694, read-out: LUCIFERASE INFECTION ASSAY - IC50): < 5.00
Cc1ccc(C)c(Sc2ccc(NC(=O)CN3C(=O)NC(Cc4ccccc4)C3=O)cc2)c1 (stereo not given)	> 10		pIC50 (PBLUC_HILL_SLOPE 1.97, PBLUC_R_SQUARED 0.872, read-out: LUCIFERASE INFECTION ASSAY - IC50): 5.23
O=[N+]([O-])c1ccc(-c2nnc(SCc3c(Cl)cccc3Cl)o2)o1	8.84		pIC50 (HEPG2TOX_HILL_SLOPE 11.4, HEPG2TOX_R_SQUARED 0.952, PBLUC_HILL_SLOPE 3.38, PBLUC_R_SQUARED 0.564, read-out: LUCIFERASE INFECTION ASSAY - IC50): 5.34
Cc1ccc2c(Cl)c(C(=O)Nc3nonc3-c3ccc(F)cc3)sc2c1	3.32	5.75	
CCCc1c(Cc2c(F)cccc2Cl)c(=O)oc2cc(OC(=O)COC)ccc12	3.31		pIC50 (PBLUC_HILL_SLOPE 13.6, PBLUC_R_SQUARED 0.599, read-out: LUCIFERASE INFECTION ASSAY - IC50): 5.55
CC(NCC(O)COC1CCC(C(C)(C)C)CC1)c1ccccc1 (stereo not given)	> 8.92		pIC50 (PBLUC_HILL_SLOPE 10.1, PBLUC_R_SQUARED 0.42, read-out: LUCIFERASE INFECTION ASSAY - IC50): 5.13
